The results in this text go back to patent publication US20150216136A1, “PLANT REGENERATION FROM PROTOPLASTS DERIVED FROM ELAEIS sp SUSPENSION CULTURES” (MALAYSIAN PALM OIL BOARD, priority 2012, published 2015).

Common to all, as to format: cell-based, Elaeis guineensis
The subject of series [1] is microcalli. Description: Control of callus browning in agarose bead culture. As to conditions: additive in Y35N5D2iP liquid media surrounding agarose beads; AA 200 mg/l. The procedure: The mixture of protoplasts and agarose was prepared by using the same procedure for preparation of agarose solidified cultures with the exception that the protoplast pellet was resuspended in […] liquid media supplemented with the optimum PGRs and 0.6% w/v agarose sea plaque. Agarose beads were prepared by dropping 200 μl of the mixture into a 60 mm×15 mm petri dish. After agarose solidification, 10 ml of 21% v/v osmoticum solution was added to Petri dish and incubated at 28° C. in the dark for 3-5 days. Three types of osmoticum solutions were used: sucrose, glucose and mannitol. Each was dissolved in water, adjusting the pH to 5.7 and then filter-sterilized. The osmoticum solution was replaced with different liquid media in shaking condition at 50 rpm by refreshing the media at 14-day intervals. When the formation of microcolonies was observed, […] liquid media was changed to Y3 liquid media and the agarose beads were cultured until the microcalli were detected. […] The cultures were continued until the microcalli growth to embryogenic calli.

Series [2] deals with oil palm protoplasts. Description: Plant growth regulators (PGRs) optimization on agarose solidified cultures. The settings on record: within PGR combinations, Y3A or Y3D media. The procedure: The PGRs optimization was performed on agarose solidified cultures. All PGRs used were prepared at the concentration of 1 μM/μl and the pH was adjusted to 5.7. The filter-sterilized PGRs were added in 24 wells culture plate at different combinations and concentration as indicated in Table 3.
Protoplast division frequency was calculated by counting the number of protoplasts divided by the total number of protoplasts in one representative microscope field. Three microscopic fields were averaged to represent one experiment in which the experiment was performed in 3 replicates to give an average range of protoplast division frequency. A similar calculation procedure was used for microcolonies and microcalli formation frequencies.

The subject of series [3] is oil palm protoplasts. Description: DNA microinjection mediated transformation of alginate layer-embedded protoplasts. As to conditions: in injected protoplasts at 28° C. The procedure: Protoplasts were isolated from a 7 day subculture of a 3 month old embryogenic suspension culture as described above. After twice repeating the washing step, the supernatant was mostly removed leaving 3 ml Washing solution. The centrifuge tube containing the protoplast suspension was incubated in a vertical position in the dark for 24 hours at 28° C. After incubation, the protoplast suspension was diluted by 10 ml of Rinse solution and resuspended by inverting the centrifuge tube for 3-5 times, and then centrifuged at 60×g for 5 minutes at 22° C. After repeating the rinsing step, the supernatant was removed completely and the protoplast pellet was embedded with 3 ml filter-sterilized ([…]) alginate solution consisted of 1% w/v alginic acid sodium salt (A2158, Sigma) dissolved in Y3A liquid media (5.5% w/v sucrose and 11.9% w/v glucose supplemented with 10 μM NAA, 2 μM 2.4-D, 2 μM IBA, 2 μM GA3, 2 μM 2iP and 200 mg/L ascorbic acid) adjusted to pH 5.6, in which the Y3 macroelements was prepared without calcium chloride (CaCl2.2H2O).
Alginate-embedded protoplasts were distributed as a thin layer onto supporting media comprising, 1.5 mL filter-sterilized Y3A (5.5% w/v sucrose and 11.9% w/v glucose supplemented with 0.1% w/v CaCl2.2H2O) solidified with 1% w/v agarose sea plaque, in 35 mm×10 mm petri dish (no. 627161, Greiner Bio-One, Germany). […]

As for `O=[N+]([O-])[O-].[Ag+]` [AgNO3, Silver nitrate], the “Microcalli browning / development of embryogenic callus” value in series [1] was “did not solve the problem of browning”.
On to `O=C(O)CCCc1c[nH]c2ccccc12` [IBA, Indole-3-butyric acid], for which, in series [2], the “Cell division at concentration higher than 7 μM” value was “inhibited cell division”.
On the same count and under the same terms, under `O=C(O)COc1ccc(Cl)cc1Cl` [2,4-D, 2,4-Dichlorophenoxyacetic acid] stands “inhibited cell division”; under `C=C1C[C@]23C[C@@]1(O)CC[C@H]2[C@@]12C=C[C@H](O)[C@@](C)(C(=O)O1)[C@H]2[C@@H]3C(=O)O` [GA3, Gibberellic acid A3], “inhibited cell division”.
Turning to `CC(C)=CCNc1ncnc2nc[nH]c12` [2iP, 2-γ-Dimethylallylaminopurine], the “Cell division at concentration higher than 7 μM” value in series [2] is “inhibited cell division”.
On to Lucifer Yellow CH dilithium salt, for which the “Time the fluorescence property is maintained” value in series [3] was determined as 48 h.
Turning to `O=C1O[C@H]([C@@H](O)CO)C(O)=C1O` [AA, Ascorbic acid], in series [1], the “Microcalli browning / development of embryogenic callus” value is “developed embryogenic callus”.
